Test results: patent US12527819B2, “Method of preventing or treating viral infections” (Vector Vitale IP LLC, priority 2020, dated 2026)
Converted amounts (≈) assume the structure as drawn. Like-named read-outs stand apart in the source and are kept apart here.

How the values were obtained:
MDCK cells = test system: MDCK cells; design: unit not given beside the values
in vitro = conditions: dog
MDBK cells = assay: Mitotic regime of MDBK cells (cytological analysis); format: cell-based, bovine; conditions: dilution 1:1000; for Abnormal mitoses MDBK / Mitotic activity MDBK: relative to tissue control
Description: Cytological analysis was performed after fixing the cells grown on cover-glasses in Shabadash's fluid (9 parts of copper nitrate in ethyl alcohol+1 part of formalin) for 30 minutes. The samples for the cytological analysis were stained using hematoxylin and eosin stain according to the generally accepted procedure.
The mitotic index was calculated by analyzing 3000-10000 observed cells and was expressed in ppm (‰), which was the number of mitoses per 1000 cells. At the same time, the presence of pathological forms of mitosis was determined. A classification developed by V. N. Blyumkin was used for the analysis of pathological mitoses.
The examination of cytological preparations was carried out with lenses ×40 and ×100, eyepiece ×10 in a Standard 20, Zeiss microscope.
The experiment was conducted on the culture of MDBK cells that were treated with various options of the drugs. After 24 hours of contact the cells were fixed and cytological preparations were made using a standard technique.
The culture of MDBK cells was selected for the study. The cells were treated with various drug options at concentrations nontoxic for cells. After 24 hours of contact, the cells were fixed and cytological preparations were prepared according to a conventional technique.

herpes simplex virus = assay: Light water at various doses in mice infected intracerebrally with herpes virus; format: in vivo; conditions: 14 day; for Number of survived mice: 8 mice
Description: Thus 50, 100 and 200 μl per mouse were administered to the infected animals.
Groups consisting of 8 mice each were included in the experiment. […] The first administration of drugs was 24 hours later. After infection, there were 4 injections in total given every other day. Uninfected mice who received intracerebral injections of 30 μl of normal saline solution and the mice infected with HSV served as a control.

[1] = test system: influenza virus A/FM/1/47 (H1N1); format: in vivo, BALB/c mice; conditions: reference drug, 1000 μg/kg
herpes virus = assay: Herpes virus meningoencephalitis model in mice, treatment regimen; conditions: dose 100 μg
Description: The anti-herpes activity of zinc preparations was studied in the model of herpes virus meningoencephalitis in BALB/c mice (18-20 g in weight) with their intracerebral administration at a dose of 0.03 ml. In all the experimental groups, the drug was administered intraperitoneally at a dose of 0.1 ml. […] 4B—Zn-64 citrate in deuterium-depleted water—3 mg/ml • 2. 4B-2—Zn citrate in deuterium-depleted water—3 mg/ml • 3. 8B—Zn-64 glutamate in deuterium-depleted water—3 mg/ml • 4. 8B-2—Zn glutamate in deuterium-depleted water—3 mg/ml • 5. 9B—Zn-64 glycine-methionine in deuterium-depleted water—1 mg/ml • 6. 9B-2—Zn glycine-methionine in deuterium-depleted water—1 mg/ml
The drug activity was evaluated by comparing the lethality in the experimental and control groups. The following factors were taken into account: • percentage of animals that died • multiplicity of protection (MP)—multiplicity of decrease in the number of dead mice in the experimental group compared to the control group • efficacy index (EI) of the drugs was determined using the following formula:

Description for Raji cells: A colorimetric assay using MTT 3-(4,5-dimethylthiazol-2-yl)-2,5-diphenyltetrazolium bromide (Sigma, USA) is based on the features of functioning of the dehydrogenase system of mitochondria of living cells which, under normal conditions, reprocess the artificial substrate MTT into a formazan that can be accounted spectrophotometrically.
The MTT substrate (Sigma, USA) was dissolved in sterile phosphate buffered saline (pH 7.2) at room temperature to a concentration of 5 mg/ml. The filtered MTT solution in a volume of 20 μl was added to the wells of a 96-well plate and incubated with the cells for 2 to 4 hours at 37° C. After incubation, the medium was removed, and 150 μl of 96° ethanol was added to the cells to dissolve the formazan crystals. The optical density of the solutions was determined spectrophotometrically using a Multican FC reader (“Thermo Scientific” (USA)) at a wavelength of 540 nm.
Cytotoxicity of the preparations under study was assessed using the MTT (3-(4,5-dimethylthiazol-2-yl)-2-5-diphenyltetrozolium bromide) assay, one of the commonly used colorimetric assay (Sigma USA). This assay determined cell viability through determination of mitochondrial function of cells by measuring activity of mitochondrial enzymes such as succinate dehydrogenase. In this assay, MTT is reduced to a purple formazan by NADH, which can be quantified spectrophotometrically. […] The purple color was measured at an excitation wavelength of 540 nm using a Thermo Scientific (USA) reader.

N[C@@H](CC(=O)O)C(=O)O [9a, aspartic acid]
CC50 as dilution (MDCK cells): 1/80 | CC50 at 5 days (in vitro): 42 µg/mL (≈ 316 µM)

Cc1ccc(S(=O)(=O)Nc2ccccc2NC(=O)c2ccccc2)cc1 [10-3, n-n-toluenesulfonyl-n-benzoyl-o-phenylenediamine]
Abnormal mitoses in % (MDBK cells; MDBK, 24 h): 25.0% | Mitotic activity in % (MDBK cells; MDBK, 24 h): 16.0% | Abnormal mitoses MDBK (MDBK cells): 1.12 | Mitotic activity MDBK (MDBK cells): 0.88 | viability of Raji cells (MTT reading) (Raji cells; 0.9 μg/ml): 1.287 | viability of Raji cells (MTT reading) (Raji cells; 9 μg/ml): 1.235 | viability of Raji cells (MTT reading) (Raji cells; 18 μg/ml): 0.1791 | viability of Raji cells (MTT reading) (Raji cells; 90 μg/ml): 0.152 | CC50 (Raji cells; Raji cells, MTT): 33.46 µg/mL (≈ 91.3 µM)

N[C@@H](CCC(=O)O)C(=O)O [10a, glutamic acid]
Abnormal mitoses in % (MDBK cells; MDBK, 24 h): 22.2% | Abnormal mitoses MDBK (MDBK cells): 1.0 | Mitotic activity MDBK (MDBK cells): 0.77 | CC50 as dilution (MDCK cells): 1:160

Nc1nc2c(ncn2COCCO)c(=O)[nH]1 [Aciclovir, Acyclovir, reference compound]
MP (%) (herpes simplex virus; reference, dose not given): 25% | Number of survived mice (herpes simplex virus; reference, dose not given): 2

O=C(O)CC(O)(CC(=O)O)C(=O)O [No 8a, citric acid]
CC50 as dilution (MDCK cells): 1/160 | CC50 at 5 days (in vitro): 14 µg/mL (≈ 72.9 µM)

CCOC(=O)C1=C[C@@H](OC(CC)CC)[C@H](NC(C)=O)[C@@H](N)C1 [Tamiflu]
EI (efficacy index) [1]: 70 | Inhibition of infectious titer in cerebral tissue in lg TCD50 [1]: 2.5 lg TCD50 | Number of mice that died, % ([1]; 10 mice): 30.0% | Number of mice that died, total ([1]; 10 mice): 3

Deuterium-depleted water
MP (%) (herpes simplex virus; 50 μl/mouse): 38% | Number of survived mice (herpes simplex virus; 50 μl/mouse, 4 injections): 3 | MP (%) (herpes simplex virus; 100 μl/mouse): 50% | Number of survived mice (herpes simplex virus; 100 μl/mouse, 4 injections): 4 | MP (%) (herpes simplex virus; 200 μl/mouse): 75% | Number of survived mice (herpes simplex virus; 200 μl/mouse, 4 injections): 6 | EI (efficacy index) (herpes virus): 50.0 | Inhibition of infectious titer in cerebral tissue in lg TCD50 (herpes virus): 2.0 lg TCD50 | MP (multiplicity of protection) (herpes virus): 2.0 | Number of mice that died, % (herpes virus; 10 mice): 50.0% | Number of mice that died, total (herpes virus; 10 mice): 5
